Legend:
[1] = biological target: T1, human recombinant adrenergic α1D receptor (Homo sapiens, UniProt P25100); assay: Adrenergic α1D radioligand binding ([3H]Prazosin); conditions: 0.1 μM compound; read-out: Percentage inhibition of ligand binding, Adrenergic α1D
T1 construct: expressed in transfected cells; host or cells: HEK-293
T1 sequence (P25100 1-572): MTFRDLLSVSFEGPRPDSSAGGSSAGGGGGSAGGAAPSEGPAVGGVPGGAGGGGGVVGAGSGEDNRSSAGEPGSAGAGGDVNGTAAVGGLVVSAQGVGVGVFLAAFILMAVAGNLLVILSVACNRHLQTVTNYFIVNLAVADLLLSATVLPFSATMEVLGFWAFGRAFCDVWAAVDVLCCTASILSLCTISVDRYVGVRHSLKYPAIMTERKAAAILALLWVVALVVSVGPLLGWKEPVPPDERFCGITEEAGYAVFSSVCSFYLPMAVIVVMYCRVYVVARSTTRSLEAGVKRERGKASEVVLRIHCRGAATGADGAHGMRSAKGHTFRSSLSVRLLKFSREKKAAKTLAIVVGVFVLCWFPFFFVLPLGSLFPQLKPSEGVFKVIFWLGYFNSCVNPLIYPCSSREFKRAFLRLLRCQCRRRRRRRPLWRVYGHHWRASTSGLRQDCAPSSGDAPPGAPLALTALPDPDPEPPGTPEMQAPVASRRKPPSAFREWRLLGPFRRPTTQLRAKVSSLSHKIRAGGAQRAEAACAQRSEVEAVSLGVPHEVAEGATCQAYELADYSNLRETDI
Method: To evaluate in radioligand binding assays the activity of compounds of the invention, human recombinant adrenergic α1D receptor expressed in human embryonic kidney (HEK-293) cells (Kenny, B. et al, Br. J. Pharmacol. 115(6):981, 1995) in a 50 mM Tris-HCl buffer, pH 7.4, was used. Compounds of invention were incubated with 0.6 nM [^3H]Prazosin for 60 min at 25° C. Non-specific binding was estimated in the presence of 10 μM phentolamine. Receptor proteins were filtered and washed, the filters were then counted to determine [^3H]Prazosin specifically bound. Compounds were screened at 1 μM or lower, using 1% DMSO as vehicle. Biochemical assay results are presented as the percent inhibition of specific binding in Table 3.

[2] = biological target: T2, human recombinant adrenergic α2C receptor (Homo sapiens, UniProt P18825); assay: Adrenergic α2C radioligand binding ([3H]MK-912); conditions: 0.1 μM compound; read-out: Percentage inhibition of ligand binding, Adrenergic α2C
T2 construct: expressed in transfected cells; host or cells: insect Sf9 cells
T2 sequence (P18825 1-462): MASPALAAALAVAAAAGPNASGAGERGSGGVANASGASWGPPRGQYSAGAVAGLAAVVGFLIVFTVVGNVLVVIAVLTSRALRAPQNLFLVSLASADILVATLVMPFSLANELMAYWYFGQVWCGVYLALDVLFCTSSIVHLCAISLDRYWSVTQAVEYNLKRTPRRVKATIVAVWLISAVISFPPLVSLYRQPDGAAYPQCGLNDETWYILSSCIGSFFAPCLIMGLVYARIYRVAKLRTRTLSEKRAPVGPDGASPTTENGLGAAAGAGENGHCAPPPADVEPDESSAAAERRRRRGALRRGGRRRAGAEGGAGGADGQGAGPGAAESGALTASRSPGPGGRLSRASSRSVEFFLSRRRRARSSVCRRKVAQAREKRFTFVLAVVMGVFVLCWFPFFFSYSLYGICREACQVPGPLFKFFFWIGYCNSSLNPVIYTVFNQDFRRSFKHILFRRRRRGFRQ
Method: To evaluate in radioligand binding assays the activity of compounds of the invention, human recombinant adrenergic α2C receptor expressed in insect Sf9 cells (Uhlen, S. et al, J. Pharmacol. Exp. Ther. 271:1558, 1994) in a modified Tris-HCl buffer (50 mM Tris-HCl, pH 7.4, 12.5 mM MgCl2, 2 mM EDTA) was used. Compounds of the invention were incubated with 1 nM [^3H]MK-912 for 60 min at 25° C. Non-specific binding was estimated in the presence of 10 μM WB-4101. Receptor proteins were filtered and washed, the filters were then counted to determine [^3H]MK-912 specifically bound. Compounds were screened at 1 μM or lower, using 1% DMSO as vehicle. Biochemical assay results are presented as the percent inhibition of specific binding in Table 3.

`Cc1ccc2c(c1)c1c(n2/C=C2\CCCc3ccccc32)CCN(C)C1` [i-3] showed an inhibition at 0.1 µM [1] of 43% and an inhibition at 0.1 µM [2] of 72%.
In the case of `Cc1ccc2c(c1)c1c(n2/C=C2/CCCc3ccccc32)CCN(C)C1` [i-2], the inhibition at 0.1 µM [1] was 86% and the inhibition at 0.1 µM [2] was 90%.

Reference: US9035056B2, “Pyrido[4,3-b]indole and pyrido[3,4-b]indole derivatives and methods of use” (Medivation Technologies, Inc., priority 2011, dated 2015)
